Assays:
[1] = tested on: antibodies of pool of serum from patients with Crohn's disease; assay: ELISA reactivity of pool of patient serums (ASCA test) with plates sensitized with synthetic antigen; format: binding; details: FIG. 9, pool of patient serums used to standardize the ASCA test
Text: It has been shown that one of the major epitopes against which was directed the ASCA response of patients with Crohn's diseases was a mannotetraose of formula Man α-1,3 Man α-1,2 Man α-1,2 Man (Sendid, B. et al., 1996, Clin. Diagn. Lab. Immunol. 3: 219–26; Young, M. et al., 1998, Glycoconj. J. 15: 815–22).

[2] = tested on: Factor 34; assay: ELISA antigenic reactivity with antigenic factor 34; format: binding, rabbit; details: FIG. 8
Procedure: Monospecific polyclonal antibodies from Iatron were prepared by immunization of rabbits with whole yeasts then adsorbed by yeasts of heterologous species. Used as a battery, they enable identification by agglutination of the principal species of Candida implicated in human pathology. Each of these “factors” reacts with specific epitopes which were identified by any entire series of immunochemical studies performed in Japan. The results of these studies were summarized in the publication by S. Suzuki (Suzuki, S. et al., 1997, Curr. Top. Med. Mycol. 8: 57–70).
According to the immunochemical studies performed on the Iatron serums, this structure should react with Factor 34 (Suzuki, S. et al., 1997, Curr. Top. Med. 8: 57–70).

[3] = tested on: C. albicans strain 10261 (4277); assay: Gastrointestinal colonization of neonatal mice by C. albicans, prophylactic synthetic tetramannosides; format: in vivo, mouse; details: for effect on gastrointestinal colonization by C. albicans (in words) / reduction in intestinal colonization (in words): mice; for effect on gastrointestinal colonization by C. albicans (in words): administration prior to inoculation, versus control; for reduction in intestinal colonization (in words): dose of 150 μg by gavage prior to inoculation; for degree of gastrointestinal colonization, median of CFUs: young mice, CFU/dropping 7 days after the inoculation
Procedure: The mothers and their litters (10 to 15 baby mice/litter) were received on the 4th day of life (line CD-1® (Crl: CD-1® (ICR) BR, Charles River, Saint Aubin les Elbeuf, France). The animals were inoculated on the 6th day of life. There was always a separation from the mother for 3 hours prior to gavage and a one hour interval after inoculation.
Two strains of C. albicans were used, strain 4276 which expresses a small amount of β-1,2 oligomannosides at its surface and strain 4277 which expresses a large amount. Prior to each use, the strains were re-inoculated on Sabouraud-chloramphenicol (SC) agar from a culture stored at −80° C. in PBS-40% glycerol. After incubation for 24 hours at 35° C., the yeasts were washed 3 time in sterile physiological water (NaCl 0.9%, water φ) and the suspension was adjusted to 2×10^9/ml. The viability of the inoculum was verified for each experiment by sowing suitable dilutions of the yeast suspensions on SC agar in Petri dishes.
[…] The sugars were diluted in sterile water to obtain the desired concentration (see results) in a volume of 50 μl. Two independent experiments were carried out. In the first, 4 litters infected with strain 4277 were compared after administration, respectively, of water (litter 1), of 50 μg pf αMan (litter 2), 150 μg of βMan (litter 3) or 150 μg of 0αMan (litter 4). In the second experiment, four litters were infected either with strain 4276 (litters 1 and 2) or with strain 4277 (litters 3 and 4) after treatment with water (litters 1 and 3) or 50 μg of bMan (litters 2 and 4).
• Mortality: the cages were monitored once daily and the number of mice was recorded. • Gastrointestinal colonization: sequentially, beginning on day 7 after the inoculation, one dropping was collected from each mouse, ground in 100 μl of sterile water with a small piston adapted to function in 1.5-ml Eppendorf tubes and the total volume was inoculated on SC agar in a Petri dish. The number of colony forming units (CFU) was counted after 24 hours of incubation at 30° C. When the CFU density prevented counting, a score was attributed on the basis of the appearance of the culture so as to allow statistical comparisons: 2 or 1000 CFU, 3 or 10,000 CFU, 4 or 100,000 CFU. 7) Statistical Analysis
The gastrointestinal colonizations according to the infecting strain and according to the treatment preceding the inoculation were compared using a nonparametric test (Mann-Whitney or Kruskall-Wallis test, depending on the number of groups) using the program Statview 4.5 for Macintosh. The percentages of positive cultures or deaths on day 1 were compared with the Fisher exact test.

[4] = tested on: C. albicans (SA-40); assay: Experimental model of vaginal candidiasis in the rat, inhibition of colonization; format: in vivo; details: for inhibition of colonization/infection (in words): administration 1 h, α control even at the maximum dose; for inhibition of colonization/infection (in words) / level of colonization (colony-forming units in vaginal secretions): 24 h and 48 h after inoculation; for level of colonization (colony-forming units in vaginal secretions): rat
Procedure: Ovarectomized female rats were maintained in pseudo-estrus by subcutaneous injection of 0.5 mg of estradiol benzoate every 2 days during the duration of the experiments. The animals were inoculated with 0.1 ml of a 10^7 yeast solution. The kinetics of the infection were monitored by determining the number of yeasts present in the vaginal secretions. 1 μl of secretion was collected with a calibrated plastic loop and spread over a dish of Sabouraud's agar plus antibiotics; the colony-forming units were counted after 48 hours of incubation at 28° C. […] 1: the β-1,2 mannotetraose (100 μg) was administered 1 hour before inoculation. 2: 1 hour after inoculation. 3: 1 h, 24 h and 48 h after inoculation. We used a model of vaginal candidiasis recognized by the international community and with which the most pertinent animal experiments to date have been performed. The results obtained in two experimental series were in perfect agreement. […] Even at the maximum dose, the α-1,2 oligomannosides administered in the same manner as control has no effect as shown in Table 3 below.

[5] = strain 10261, 150 μg by gavage prior to inoculation

Molecule	effect on gastrointestinal colonization by C. albicans (in words) [3]	reduction in intestinal colonization (in words) [3]	degree of gastrointestinal colonization, median of CFUs [3, 5] [CFU]	inhibition of colonization/infection (in words) ([4]; rat vaginal candidiasis)	level of colonization (colony-forming units in vaginal secretions) ([4]; SA-40, 50 γ 1 h, day 0)	level of colonization (colony-forming units in vaginal secretions) ([4]; SA-40, 50 γ 1 h, day 1)	level of colonization (colony-forming units in vaginal secretions) ([4]; SA-40, 50 γ 1 h, day 2)	level of colonization (colony-forming units in vaginal secretions) ([4]; SA-40, 50 γ 1 h, day 5)	level of colonization (colony-forming units in vaginal secretions) ([4]; SA-40, 50 γ 1 h, day 7)	level of colonization (colony-forming units in vaginal secretions) ([4]; SA-40, 50 γ 1 h, day 14)	level of colonization (colony-forming units in vaginal secretions) ([4]; SA-40, 50 γ 1 h, day 21)	level of colonization (colony-forming units in vaginal secretions) ([4]; SA-40, 100 γ 1 h, day 0)	level of colonization (colony-forming units in vaginal secretions) ([4]; SA-40, 100 γ 1 h, day 1)	level of colonization (colony-forming units in vaginal secretions) ([4]; SA-40, 100 γ 1 h, day 2)	level of colonization (colony-forming units in vaginal secretions) ([4]; SA-40, 100 γ 1 h, day 5)	level of colonization (colony-forming units in vaginal secretions) ([4]; SA-40, 100 γ 1 h, day 7)	level of colonization (colony-forming units in vaginal secretions) ([4]; SA-40, 100 γ 1 h, day 14)	level of colonization (colony-forming units in vaginal secretions) ([4]; SA-40, 100 γ 1 h, day 21)	other results
8-carboxyloctyl 2-O-(2-O-(3-O-α-D-mannopyranosyl)-α-D-mannopyranosyl)-α-D-mannopyranosyl)-α-D-mannopyranoside [III]																			fixation of patient antibodies (in words) [1]: affix according to a reaction dependent on the dose of synthetic antigen; antigenic reactivity with Factor 34 (in words) [2]: results observed correspond to the anticipated results
OC[C@H]1O[C@H](O[C@@H]2[C@@H](O[C@@H]3[C@@H](O[C@@H]4C(O)O[C@H](CO)[C@@H](O)[C@@H]4O)O[C@H](CO)[C@@H](O)[C@@H]3O)O[C@H](CO)[C@@H](O)[C@@H]2O)[C@@H](O)[C@@H](O)[C@@H]1O (stereo partly drawn) [αM A N, D-Man α(1-2) D-Man α(1-2) D-Man α(1-2) D-Man]	did not modify the degree of gastrointestinal colonization	not seen	258	no effect	>100	>100	95 ± 2	86 ± 4	69 ± 6	48 ± 4	21 ± 4	>100	>100	93 ± 3	83 ± 5	71 ± 6	495	22.4 ± 3.4	
OC[C@H]1O[C@@H](O[C@@H]2[C@H](O[C@@H]3[C@H](O[C@@H]4C(O)O[C@H](CO)[C@@H](O)[C@@H]4O)O[C@H](CO)[C@@H](O)[C@@H]3O)O[C@H](CO)[C@@H](O)[C@@H]2O)[C@@H](O)[C@@H](O)[C@@H]1O (stereo partly drawn) [βM 4, D-Man β(1-2) D-Man β(1-2) D-Man β(1-2) D-Man]	very protective	almost total reduction	5	reduced colonization by C. albicans in a very significant manner	>100	>100	88 ± 6	62 ± 4	57 ± 3	23 ± 5	<1	>100	87 ± 6	83 ± 8	40 ± 6	54 ± 8	45 ± 14	<1	effect on gastrointestinal colonization by C. albicans (in words) ([3]; listed as synthetic β-1,2 tetramannosides): drastic, dose-dependent reduction in the number of yeasts found in the stools; effect on gastrointestinal colonization by C. albicans (in words) ([3]; listed as βMan): significantly decreased the degree of colonization; degree of gastrointestinal colonization, median of CFUs ([3]; strain 10261, 50 μg by gavage prior to inoculation): 48.5 CFU; inhibition of colonization/infection (in words) ([4]; rat vaginal candidiasis, listed as synthetic β-1,2 oligomannosides): dose-dependent relation of inhibition of colonization/infection; carrier state of C. albicans (in words) ([4]; rat vaginal candidiasis, at the end of the experiments): no longer be carriers of C. albicans; change of level of colonization (in words) ([4]; rat vaginal candidiasis, beginning on the first day of administration): decreased by close to half; level of colonization (colony-forming units in vaginal secretions) ([4]; SA-40, 150 γ 1 h, day 0): >100; level of colonization (colony-forming units in vaginal secretions) ([4]; SA-40, 150 γ 1 h, day 1): 62 ± 7; level of colonization (colony-forming units in vaginal secretions) ([4]; SA-40, 150 γ 1 h, day 2): 54 ± 0; level of colonization (colony-forming units in vaginal secretions) ([4]; SA-40, 150 γ 1 h, day 5): 27 ± 3; level of colonization (colony-forming units in vaginal secretions) ([4]; SA-40, 150 γ 1 h, day 7): 28 ± 4; level of colonization (colony-forming units in vaginal secretions) ([4]; SA-40, 150 γ 1 h, day 14): 5.6 ± 3; level of colonization (colony-forming units in vaginal secretions) ([4]; SA-40, 150 γ 1 h, day 21): <1

Reference: patent US7109182B2, “Synthetic oligomannosides, preparation and uses thereof” (Centre Hospitalier Regional Universitaire (CHRU), priority 1999, dated 2006)
